Broadly, the IC50 is the concentration needed to halve the response being measured.

A short description of the assay: Antiinflammatory activity in human PMN assessed as inhibition of Phorbol-12-myristate-13-acetate-induced ROS production. In kind it is functional.

`C=CCC1=CC(OC)(/C(C)=C/c2ccc3c(c2)OCO3)C(OC)=CC1=O` (stereo not given) [FUTOQUINOL]: the concentration for half-maximal inhibition (IC50) turned out to be 13.1 µM.
Consider `O=C(/C=C/c1ccc(O)cc1)NCCc1ccc(O)cc1` [N-P-COUMAROYL TYRAMINE], for which the IC50 was 8.4 µM.
As for `C=CCC1=C[C@@](OC)(/C(C)=C/c2ccc(O)c(OC)c2)C(OC)=CC1=O` [PIPERKADSIN A], the IC50 stood at 4.3 µM.
As for `C=CCC1([C@H](C)[C@@H](OC(C)=O)c2ccc(OC)c(OC)c2)C=C(OC)C(OC)=CC1=O` (stereo not given in full) [PIPERKADSIN B], the IC50 turned out to be 12.2 µM.
In the case of `COc1c(O)cc2c3c(cc4ccccc4c13)N(OC)C2=O` [PIPERLACTAM S] it was 7 µM.
